Laboratory results published in patent US20260224541A1, “PHARMACEUTICAL FORMULATION, PREPARATION METHOD THEREFOR, AND TABLET COMPOSITION” (JEIL PHARMACEUTICAL CO., LTD., priority 2023, published 2026).

Experiment: oral administration: blood concentration of the citrate salt vs free base Compound 1
Assay type: in vivo
Conditions: administered orally

With `Cc1cccc(C)c1CNc1cc(C(=O)N2CCC2)cn2c(C)c(C)nc12.O=C(O)CC(O)(CC(=O)O)C(=O)O` [citrate salt of Compound 1, azetidin-1-yl{8-[(2,6-dimethylbenzyl)amino]-2,3-dimethylimidazo[1,2-a]pyridin-6-yl}methanone citrate salt] the “AUC compared to the free base Compound 1” value was “at least 5 fold”, the “Cmax compared to the free base Compound 1” value was “at least 11 fold” and the “time to reach peak blood concentrations compared to the free base Compound 1” value was “faster”.
